In test [1] the test system is TCF/LEF transcriptional activity of spheroid clone #6 Cl. 2. The test is described as follows: Spheroid TCF/LEF GFP reporter assay. The test is classed as cell-based. The following applies: Homo sapiens, read-out: IC50, reduction of cells expressing Wnt-driven GFP. The text has this: Lentiviral gene transfer of the reporter gene was used to evaluate the TCF/LEF transcriptional activity of patient-derived spheroids due to their poor transfection efficiency. Spheroids were infected with TCF/LEF reporter lentiviral particles encoding the green fluorescent protein (GFP) gene under the control of the TCF/LEF-responsive promoter (Cignal Lenti TCF/LEF Reporter (GFP) (Qiagen)) or relevant negative control lentiviral particles (Cignal Lenti negative control (GFP) (Qiagen)) at a multiplicity of infection of 10 in the presence of 4 μg ml^−1 SureEntry Transduction Reagent (Qiagen) for 24 h. GFP-positive spheroids were cloned by limiting dilution in the presence of 2 μg ml^−1 puromycin (Sigma-Aldrich; Fig. 6a,b).
GFP-positive cells were detected using the Guava easy Cyte HT flow cytometer (Fig. 6c). Experiments were performed in triplicate and repeated at least two times.
(A reporter such as luciferase makes a cellular process visible.)

The test system of test [2] is patient-derived colon cancer spheroid #6 xenograft. The test is described as follows: Xenograft of patient-derived spheroid #6 in NOD/ShiJic-scid mice. The test is classed as in vivo, mouse. To be noted: NCB-0846 HCl oral 50 or 100 mg kg−1 BID, 6-days-on, 1-day-off. The source says: Patient-derived colorectal cancer spheroids were dissociated, resuspended in medium containing 50% Matrigel (Corning), and inoculated subcutaneously (#6; 1 × 10^4 cells per injection, #19; 1 × 10^5 cells per injection) into the flank of female NOD/ShiJic-scid mice (4-week-old females; CLEA Japan). When the tumour volume reached ∼200 mm^3, the mice were randomized according tumour volume (10 mice per group) and treatment was started.
(§1) Tumour volume was estimated based on the formula: (length × width^2)/2. The tumour volume (twice a week) and body weight (every day) of each mouse were recorded. The patient-derived spheroids and xenografts were established after obtaining informed consent from the donors.

The test system of the next test is HCT116 xenografts. Nature of the test: HCT116 xenograft growth in BALB/c-nu/nu mice. It counts as in vivo, mouse. The following applies: oral, 40 or 80 mg kg−1 BID, 14 days. As to the method: Five million HCT116 cells suspended in medium containing 25% Matrigel (BD Biosciences) were inoculated into the subcutaneous tissues of 9-week-old female BALB/c nude mice. When the tumour volume reached ∼80 mm^3, the mice were randomized according to tumour volume (9 mice per group).
as §1

Test [3] concerns TCF/LEF transcriptional activity. The test is described as follows: TCF/LEF luciferase reporter in Wnt3a-treated HEK293 cells. It counts as cell-based, human. To be noted: Wnt3a-treated HEK293, 24 h. As to the method:
HEK293 cells were transiently transfected with pGL4.49[luc2P/TCF-LEF-RE/Hygro] reporter vector (Promega) using Fugene HD Transfection Reagent (Promega; Fig. 2f). After overnight incubation, the cells were then treated with 10 mM LiCl (Sigma-Aldrich). Luciferase activity was measured using the ONE-Glo Luciferase Assay System (Promega). The assay was performed in triplicate and repeated at least two times.
In some experiments cells were treated with mouse Wnt3a (PeproTech) (Fig. 1c) or human Wnt3a (R&D Systems; Fig. 2f) before the measurements, as indicated in the figure legends.

As usually defined, the IC50 is the concentration that inhibits the measured activity by half.

For `O[C@H]1CC[C@@H](Oc2cccc3cnc(Nc4ccc5nc[nH]c5c4)nc23)CC1` [NCB-0846, cis-4-(2-(3H-benzo[d]imidazol-5-ylamino)quinazolin-8-yloxy)cyclohexanol], in test [1], the IC50 came to 0.48 µM. The growth of tumours entry (in test [2]; in the test with HCT116 xenografts) was “suppressed” throughout. The TCF/LEF transcriptional activity result in test [3] is given as “inhibited”.

These data come from paper PMC5007443, “TNIK inhibition abrogates colorectal cancer stemness” (Nature Communications, 2016).
